Ten compounds from ChEMBL document CHEMBL4334535, “Novel Pyrazolyl-dihydroisoquinolines as Positive Allosteric Modulator of the Dopamine D1 Receptor” (ACS Med Chem Lett, 2020) can be followed below.

Calls of active or inactive are those of the source. The calls are words filed in the database; no cut-off is given here.

Assay [1] addresses T1, D(1A) dopamine receptor (Homo sapiens, UniProt P21728). Briefly: Potentiation of dopamine-induced positive allosteric modulation of human D1 receptor expressed in HEK293 cells assessed as cAMP production measured after 60 to 90 mins by HTRF assay relative to control. The assay is classed as functional, cell-based. Further details: concentration or dose not given beside the values.

Assay [2] has as its system Mus musculus. Briefly: Increase in basal locomotor activity in transgenic knockout C57BL/6 mouse expressing human D1 receptor mouse at 10 ml/kg, po measured every 10 mins for 60 mins by automated system analysis. Format: functional, organism-based.
In assay [3] the target is T1, D(1A) dopamine receptor. Briefly: Positive allosteric modulation of human D1 receptor expressed in HEK293 assessed as cAMP production incubated for 60 mins by HTRF assay. The assay is classed as functional, cell-based. Background: cAMP levels reflect the balance of adenylyl cyclase and phosphodiesterase activity.

T1 sequence (P21728 whole entry): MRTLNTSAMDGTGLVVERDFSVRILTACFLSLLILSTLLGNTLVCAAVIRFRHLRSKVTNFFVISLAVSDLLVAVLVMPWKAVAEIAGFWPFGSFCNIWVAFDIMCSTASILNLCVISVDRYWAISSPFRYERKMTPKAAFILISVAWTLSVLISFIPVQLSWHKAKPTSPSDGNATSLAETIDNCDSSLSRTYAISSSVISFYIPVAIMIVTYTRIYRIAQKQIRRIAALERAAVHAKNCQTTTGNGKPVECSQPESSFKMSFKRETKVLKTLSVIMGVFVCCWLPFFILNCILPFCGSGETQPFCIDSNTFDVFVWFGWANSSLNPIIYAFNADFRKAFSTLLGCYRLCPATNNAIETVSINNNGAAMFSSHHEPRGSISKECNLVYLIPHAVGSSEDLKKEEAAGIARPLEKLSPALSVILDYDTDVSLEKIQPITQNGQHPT

With `C[C@H]1c2cccc(-c3cnn(C4CC4)c3)c2C[C@H](CO)N1C(=O)Cc1c(Cl)cccc1Cl`, the Activity in assay [1] is 88.1%.
On the same count and under the same terms, the value for `CCn1cc(-c2cccc3c2C[C@H](CO)N(C(=O)Cc2c(Cl)cccc2Cl)[C@H]3C)cn1` was 91.2%; that for `C[C@H]1c2cccc(-c3cn[nH]c3)c2C[C@H](CO)N1C(=O)Cc1ccc(F)cc1Cl` was 77.1%.
In the case of `C[C@H]1c2cccc(-c3cn[nH]c3)c2C[C@H](CO)N1C(=O)Cc1c(Cl)cccc1Cl`, the outcome in assay [2] was Active. Moreover, the Activity in assay [1] amounted to 75.9%.
For `C[C@H]1c2cccc(-c3cnn(C)c3)c2C[C@H](CO)N1C(=O)Cc1c(Cl)cccc1Cl`, in that order: “Active” and 91.4%.
On to `C[C@H]1c2cccc(-c3cn[nH]c3)c2C[C@H](CO)N1C(=O)Cc1c(F)cccc1F`, for which the Activity in assay [1] is 78.1%.
Still for that read-out and setting: to `C[C@H]1c2cccc(-c3cn[nH]c3)c2C[C@H](CO)N1C(=O)Cc1c(F)cccc1Cl` belongs 81.5%.
Usually EC50 stands for the midpoint of the concentration-response curve. Turning to `C[C@H]1c2cccc(-c3cnn(CCO)c3)c2C[C@H](CO)N1C(=O)Cc1c(Cl)cccc1Cl`, in assay [3], the EC50 is 18.3 nM. In addition, in assay [1], the Activity worked out at 79.1%.
`C[C@H]1c2cccc(-c3cn[nH]c3)c2C[C@H](CO)N1C(=O)Cc1cc(F)ccc1Cl`: the Activity in assay [1] came to 79.8%.
The same measure, in the same setting: the value for `C[C@H]1c2cccc(-c3cnn(C)c3)c2C[C@H](CO)N1C(=O)Cc1ccccc1Cl` was 80.4%.
